ChEMBL document CHEMBL1201862, “PubChem BioAssay data set” (2004)
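In this assay, cells in 96-well plates receive the compound at five concentrations for 48 hours. Endpoints are linearly interpolated between the surrounding concentrations. The concentration for 50% growth inhibition is given as GI50.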 Activity calls are given as the source filed them. Cut-off read from the data, not from the text of the source: active = GI50 up to about 1.1 µM and inactive = higher.

Tests used:
Experiment in all cases: growth of human tumour cells (NCI), 48 h
NCI-H23 = tested on: NCI-H23
NCI-H226 = tested on: NCI-H226
HCT-116 = tested on: HCT-116
NCI-H460 = tested on: NCI-H460
SW-620 = tested on: SW-620
Malme-3M = tested on: Malme-3M
OVCAR-3 = tested on: OVCAR-3
ACHN = tested on: ACHN
SNB-75 = tested on: SNB-75
SK-MEL-28 = tested on: SK-MEL-28
U-251 = tested on: U-251
SF-268 = tested on: SF-268
UO-31 = tested on: UO-31
A498 = tested on: A498
SN12C = tested on: SN12C

Structure (SMILES) | GI50 (NCI-H23) | GI50 (NCI-H226) | GI50 (HCT-116) | GI50 (NCI-H460) | GI50 (SW-620) | GI50 (Malme-3M) | GI50 (OVCAR-3) | GI50 (ACHN) | GI50 (SNB-75) | GI50 (SK-MEL-28) | GI50 (U-251) | GI50 (SF-268) | GI50 (UO-31) | GI50 (A498) | GI50 (SN12C)
c1csc(C[N+]23CN4CN(CN(C4)C2)C3)c1 | > 100 µM (inactive) | > 100 µM (inactive) | > 100 µM (inactive) | 23.2 µM (inactive) | 15.7 µM (inactive) | 18.3 µM (inactive) | > 100 µM (inactive) | 37.5 µM (inactive) | > 100 µM (inactive) | > 100 µM (inactive) | 22.3 µM (inactive) | > 100 µM (inactive) | > 100 µM (inactive) | – | –
COc1cccc2c1C(=O)C1(O)CCCCC21 (stereo not given) | > 100 µM (inactive) | > 100 µM (inactive) | > 100 µM (inactive) | > 100 µM (inactive) | > 100 µM (inactive) | > 100 µM (inactive) | > 100 µM (inactive) | > 100 µM (inactive) | > 100 µM (inactive) | > 100 µM (inactive) | > 100 µM (inactive) | > 100 µM (inactive) | > 100 µM (inactive) | > 100 µM (inactive) | > 100 µM (inactive)
Cc1ccc(N2C[N+](c3ccccc3)=NC(c3ccccc3)=N2)cc1 | 38.9 µM (inactive) | 60.8 µM (inactive) | 35.4 µM (inactive) | 54.1 µM (inactive) | 51.8 µM (inactive) | 43.6 µM (inactive) | 29.4 µM (inactive) | 32.7 µM (inactive) | – | 55.7 µM (inactive) | 44.6 µM (inactive) | > 100 µM (inactive) | 35.9 µM (inactive) | 71.9 µM (inactive) | 62.2 µM (inactive)
O=c1[nH]c(=O)n(C2OC(COP(=O)(O)OP(=O)(O)O)C(O)C2O)cc1F (stereo not given) | 2.08 µM (inactive) | 3.13 µM (inactive) | 0.0643 µM (active) | 0.0453 µM (active) | 0.171 µM (active) | 0.726 µM (active) | 6.34 µM (inactive) | 0.178 µM (active) | 8.65 µM (inactive) | 2.13 µM (inactive) | 0.391 µM (active) | 0.298 µM (active) | 6.08 µM (inactive) | 6.25 µM (inactive) | 0.916 µM (active)
N#Cc1cccc(N2C(=O)c3c(c(-c4ccccc4)c(-c4ccc(Sc5ccc(-c6c(-c7ccccc7)c7c(c(-c8ccccc8)c6-c6ccccc6)C(=O)N(c6cccc(C#N)c6)C7=O)cc5)cc4)c(-c4ccccc4)c3-c3ccccc3)C2=O)c1 | > 100 µM (inactive) | – | 65.2 µM (inactive) | > 100 µM (inactive) | > 100 µM (inactive) | > 100 µM (inactive) | > 100 µM (inactive) | > 100 µM (inactive) | – | > 100 µM (inactive) | 21.2 µM (inactive) | 55.7 µM (inactive) | 91.8 µM (inactive) | – | 23.9 µM (inactive)
CCOC(=O)N1CCC(=O)C[C@@H]1C/C=C/P1(=O)O[C@H](c2ccccc2)C(C)N1C(C)C (stereo not given in full) | > 100 µM (inactive) | > 100 µM (inactive) | > 100 µM (inactive) | – | > 100 µM (inactive) | > 100 µM (inactive) | > 100 µM (inactive) | > 100 µM (inactive) | > 100 µM (inactive) | > 100 µM (inactive) | > 100 µM (inactive) | > 100 µM (inactive) | > 100 µM (inactive) | – | > 100 µM (inactive)
CS/C(C)=N/OC(=O)NCCCCNc1ccc(N=[N+]=[N-])cc1 | 34.9 µM (inactive) | 21 µM (inactive) | 34.2 µM (inactive) | 35 µM (inactive) | 58.5 µM (inactive) | 32 µM (inactive) | 27.7 µM (inactive) | 26.2 µM (inactive) | 52.4 µM (inactive) | 49.7 µM (inactive) | 30.6 µM (inactive) | 32.7 µM (inactive) | 20.7 µM (inactive) | 47 µM (inactive) | 59.2 µM (inactive)
NC1=NC(Cn2nc(-c3ccccc3)c3ccccc3c2=O)=NNC(=O)N1 | > 100 µM (inactive) | > 100 µM (inactive) | > 100 µM (inactive) | > 100 µM (inactive) | > 100 µM (inactive) | > 100 µM (inactive) | > 100 µM (inactive) | > 100 µM (inactive) | > 100 µM (inactive) | > 100 µM (inactive) | > 100 µM (inactive) | > 100 µM (inactive) | > 100 µM (inactive) | > 100 µM (inactive) | > 100 µM (inactive)
CC(C)c1ccc2c(c1)CCC1C(C)(C)[C@@H](O)CC[C@]21C (stereo not given in full) | 29.8 µM (inactive) | 18.7 µM (inactive) | 18.5 µM (inactive) | 17.9 µM (inactive) | – | 17 µM (inactive) | 34 µM (inactive) | 47.4 µM (inactive) | 19.6 µM (inactive) | 44.5 µM (inactive) | 22.4 µM (inactive) | 39 µM (inactive) | 69.5 µM (inactive) | – | 20.9 µM (inactive)
